Assay results taken from paper PMC8551263, “Optineurin modulates the maturation of dendritic cells to regulate autoimmunity through JAK2-STAT3 signaling” (Nature Communications, 2021).

Biological target: T1, OPTN (Homo sapiens, UniProt Q96CV9)
T1 construct: protein for SPR
Assay: surface plasmon resonance
Assay type: binding
Conditions: rapid on-rate and off-rate kinetics; sensorgrams in Supplementary Fig. 7a, b

T1 sequence (Q96CV9 whole entry): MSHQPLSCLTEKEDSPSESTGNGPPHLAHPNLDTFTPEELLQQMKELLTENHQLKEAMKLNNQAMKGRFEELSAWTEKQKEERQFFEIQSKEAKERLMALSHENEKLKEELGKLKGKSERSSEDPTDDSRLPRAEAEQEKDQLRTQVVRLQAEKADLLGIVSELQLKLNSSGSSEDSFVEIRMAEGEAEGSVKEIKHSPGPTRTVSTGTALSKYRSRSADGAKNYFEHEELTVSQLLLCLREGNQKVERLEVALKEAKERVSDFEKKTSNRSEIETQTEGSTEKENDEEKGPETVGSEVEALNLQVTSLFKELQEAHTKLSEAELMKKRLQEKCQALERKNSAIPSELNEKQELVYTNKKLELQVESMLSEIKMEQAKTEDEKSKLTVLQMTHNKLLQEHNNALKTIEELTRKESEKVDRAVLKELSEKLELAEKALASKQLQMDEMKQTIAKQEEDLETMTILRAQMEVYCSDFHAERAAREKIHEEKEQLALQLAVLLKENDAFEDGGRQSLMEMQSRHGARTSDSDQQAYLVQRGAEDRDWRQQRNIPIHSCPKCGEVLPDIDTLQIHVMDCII

KD: 5.115 × e^−5 M
Structure (SMILES): C[C@H]1O[C@@H](O[C@H]2CC[C@@]3(C)[C@@H](CC[C@]4(C)[C@@H]3C=C[C@]35OC[C@@]6(CCC(C)(C)C[C@H]63)[C@H](O)C[C@]54C)[C@]2(C)CO)[C@H](O)[C@@H](O[C@@H]2O[C@H](CO)[C@@H](O)[C@H](O)[C@H]2O)[C@H]1O [Saikosaponin D]
